This is an account of results in US5232917A, “Methods, compositions, and compounds for allosteric modulation of the GABA receptor by members of the androstane and pregnane series” (priority 1991, dated 1993).

Where two headings read alike, the source gives them in different places.

For assay [1], the system named is GABA receptor complex (36Cl uptake, cerebral cortical synaptoneurosomes). As to the kind of experiment: GABA-stimulated 36Cl uptake in rat cerebral cortical synaptoneurosomes. The assay is classed as biochemical, rat (male Sprague-Dawley). As to the method:
In addition, the ability of the BZ clonazepam to modulate ^36 Cl uptake in the presence or absence of 5α-pregnandiol was evaluated.
The homogenate was diluted to a final volume of 40 mL with buffer and filtered through three layers of Nylon mesh (160 μm).
Aliquots of membrane preparation (200 μL) were preincubated at 30° C. for 10 min. The interaction was initiated by the simultaneous addition of drugs/steroids and 0.2 mL ^36 Cl (New England Nuclear Boston, Mass., 0.55 mCi/mmol, 0.8 μCi/ml) resulting in a total incubation volume of 0.4 mL. Steroids and test drugs were solubilized in dimethylsufoxide (DMSO) and added to the reaction mixture in 2 μL aliquots. An equal volume of vehicle was always included in the control reaction mixture. The mixture was gently mixed and ^36 Cl uptake terminated after 5 sec by the of 5 mL of ice cold buffer containing 100 μM picrotoxin (Sigma Chem Co.) followed immediately by rapid filtration through glass fiber filters (Whatman GF/C) under vacuum. The filters were washed twice with 5 mL of ice-cold buffer and the filter-bound radioactivity quantitated by liquid scintillation spectrophotometry. Specific uptake was calculated by subtracting the amount of ^36 Cl bound to the filters in the absence of synaptoneurosomes from that observed in their presence. Percent enhancement represents percent increase in uptake over that of basal ^36 Cl uptake. Statistical comparisons utilized the analysis of variance (ANOVA).

The subject of assay [2] is metrazol induced convulsions. As to the kind of experiment: Inhibition of metrazol induced convulsions (Table 2). The class given is in vivo, mice. The following applies: Mus musculus. The procedure:
Experiments were also performed to determine the physiological relevance of these interactions by measuring the ability of the compound of and used in the invention to modulate TBPS-induced convulsions in Swiss-Webster mice. […] The time to onset of myoclonus (presence of forelimb clonic activity) induced by TBPS was determined by observing each mouse for a period of 45 minutes. Significant differences between the time to onset in control mice vs. steroid-treated mice were determined by Student's t-test. […] The number of animals with tonic and/or clonic convulsions was recorded. In the maximal electroshock test, 50 mA of current at 60 Hz was delivered through corneal electrodes for 200 msec to induce tonic seizure. […] The ED50 (the dose at which the half-maximal effect occurs) was determined for each screen.
Adult male CFI mice (20-30g) were used in these studies. […] Percent protection against metrazol-induced seizures was plotted against time after administration of the compound. […] Ten to twelve mice were used per dose of test drug. […] The number of animals with tonic and/or clonic convulsions was recorded. The ability of the steroid to abolish the tonic component was defined as the endpoint. Sedative potential was determined by a rotorod test where the number of mice staying on a rotating (6 rpm) rod for ≥1 min. in each of three trials was determined.

The next assay addresses T1, estrogen receptor (Bos taurus, UniProt P49884).
T1 construct: from tissue; host or cells: bovine uterus cytosol
T1 sequence (P49884 1-596): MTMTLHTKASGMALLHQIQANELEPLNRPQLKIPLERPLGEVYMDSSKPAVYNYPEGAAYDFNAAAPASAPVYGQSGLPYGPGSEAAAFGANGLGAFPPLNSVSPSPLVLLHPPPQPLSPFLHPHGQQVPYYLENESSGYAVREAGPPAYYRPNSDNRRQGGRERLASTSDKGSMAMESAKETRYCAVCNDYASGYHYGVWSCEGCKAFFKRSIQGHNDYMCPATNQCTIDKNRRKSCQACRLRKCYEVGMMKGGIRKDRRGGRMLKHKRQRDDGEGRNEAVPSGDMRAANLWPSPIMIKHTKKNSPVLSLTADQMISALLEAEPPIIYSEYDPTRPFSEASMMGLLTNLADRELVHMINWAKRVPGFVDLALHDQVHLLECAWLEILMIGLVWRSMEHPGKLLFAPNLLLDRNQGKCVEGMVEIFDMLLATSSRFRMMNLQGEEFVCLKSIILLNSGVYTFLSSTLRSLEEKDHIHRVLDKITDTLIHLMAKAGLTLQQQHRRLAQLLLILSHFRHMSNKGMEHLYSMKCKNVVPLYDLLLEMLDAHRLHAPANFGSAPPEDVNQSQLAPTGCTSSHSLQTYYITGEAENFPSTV
As to the kind of experiment: Inhibition of 3H-estradiol binding to bovine uteral estrogen receptors. To be noted: read-out: % of inhibition of 3H-estradiol binding, B, competitor 10^-6 M; 0.25 nM 3H-estradiol. As to the method:
(§1) The hormonal activity of drugs described herein was further studied through testing their potential estrogenic, progestinic, mineralocorticoid and glucocorticoid activities. These activities were analyzed by monitoring the ability of the drugs to inhibit binding of the steroid hormones to their respective hormone receptors.

The target of the next assay is T2, progesterone receptor (Bos taurus, UniProt F1N712).
T2 construct: from tissue; host or cells: bovine uterus cytosol
T2 sequence (F1N712 1-914): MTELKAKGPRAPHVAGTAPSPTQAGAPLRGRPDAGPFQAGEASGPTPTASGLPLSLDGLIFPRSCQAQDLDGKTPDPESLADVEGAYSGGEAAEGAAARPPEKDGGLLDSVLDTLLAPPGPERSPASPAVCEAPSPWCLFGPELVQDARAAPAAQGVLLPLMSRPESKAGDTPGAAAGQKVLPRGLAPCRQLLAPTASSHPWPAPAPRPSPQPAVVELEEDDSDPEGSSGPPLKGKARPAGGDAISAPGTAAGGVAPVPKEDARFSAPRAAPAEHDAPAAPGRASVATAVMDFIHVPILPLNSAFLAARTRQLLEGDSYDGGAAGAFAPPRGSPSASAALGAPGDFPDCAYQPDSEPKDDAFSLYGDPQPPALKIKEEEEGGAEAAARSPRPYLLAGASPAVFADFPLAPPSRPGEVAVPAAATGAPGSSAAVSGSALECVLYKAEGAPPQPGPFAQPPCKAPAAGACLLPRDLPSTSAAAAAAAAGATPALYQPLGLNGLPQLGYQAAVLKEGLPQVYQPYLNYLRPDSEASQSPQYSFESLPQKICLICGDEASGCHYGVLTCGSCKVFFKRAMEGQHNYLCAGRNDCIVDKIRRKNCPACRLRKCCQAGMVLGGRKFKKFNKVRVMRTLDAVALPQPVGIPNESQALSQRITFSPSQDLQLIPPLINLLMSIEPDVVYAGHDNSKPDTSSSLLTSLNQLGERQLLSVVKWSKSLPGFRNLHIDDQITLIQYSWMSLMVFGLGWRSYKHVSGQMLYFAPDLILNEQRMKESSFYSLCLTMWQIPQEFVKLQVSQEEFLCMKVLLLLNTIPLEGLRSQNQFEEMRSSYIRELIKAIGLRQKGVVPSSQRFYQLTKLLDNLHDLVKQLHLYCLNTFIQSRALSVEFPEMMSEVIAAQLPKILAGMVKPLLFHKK
As to the kind of experiment: Inhibition of 3H-progesterone binding to bovine uteral progesterone receptors. As to the method: as §1
For the data presented in Table 9, bovine uteri cytosol was isolated as they were for Table 7 and used for following binding to progesterone receptors by following the inhibition of ^3 H-progesterone, the natural ligand.

In assay [3] the target is GABA receptor-chloride ionophore complex (GR complex). As to the kind of experiment: [35S]TBPS binding modulation assay. To be noted: for Max. Inhib., maximal % of specifically bound [35S]-TBPS displaced: saturating concentrations of test compound.
Assay [4] deals with GABA receptor-chloride ionophore complex (GR complex). As to the kind of experiment: Dissociation kinetics of [35S]TBPS in rat cerebral cortical membranes. The assay is classed as binding. To be noted: alphaxalone 300 nM, 3α-OH-DHP 20 nM.
Assay [5] concerns number of light/dark transitions (anxiety). The following applies: Blumstein and Crawley, 1983; Crawley et al.; cited from earlier work.
Where [6] appears, read: read-out: % of inhibition of 3H-progesterone binding, A, competitor 10^-5 M, 0.15 nM 3H-progesterone.
[7] abbreviates: read-out: % of inhibition of 3H-progesterone binding, B, competitor 10^-5 M, 0.25 nM 3H-progesterone.
Setting [8] is: read-out: % of inhibition of 3H-progesterone binding, B, competitor 10^-6 M, 0.25 nM 3H-progesterone.
Where [9] appears, read: read-out: IC50, inhibition of [35S]-TBPS binding, +5 μM GABA, in the presence of 5 μM GABA.
[10] abbreviates: Na pentobarbital 30 μM, 2 nM [35S]TBPS.

A word on the ED50: it is the dose that gives a 50% effect, or the effect in half of the subjects. The term inhibition denotes the relative decrease from the control value, in per cent. As usually defined, the IC50 is the point on the concentration scale where inhibition reaches its midpoint. `C[C@H](O)[C@H]1CC[C@H]2[C@@H]3CC[C@H]4C[C@H](O)CC[C@]4(C)[C@H]3CC[C@]12C` [5α-pregnanediol, 5α-pregnan-3α,20α-diol]: the “% enhancement of basal 36Cl uptake” value in assay [1] (5α-pregnanediol (3 μM), no GABA) is recorded as 2 ± 1%; in assay [1] (GABA (25 μM) + 5α-pregnanediol (3 μM)), 162±4%; in assay [1] (GABA (25 μM) + 5α-pregnanediol (3 μM) + clonazepam (1 μM)), 192 ± 16%. In addition, in assay [1] (5α-pregnanediol at 3 μM, GABA 25 μM, FIG. 4), the “maximal enhancement of GABA-stimulated 36Cl uptake above GABA alone” value was “approximately 30%”. The “concentration at which potentiation of GABA-stimulated 36Cl uptake reaches a plateau” value in assay [1] (FIG. 4) was determined as 3 µM. Also, the “3α-OH-DHP potentiation of GABA-stimulated 36Cl uptake as antagonized by 5α-pregnanediol” value in assay [1] (from 60% to this value above GABA (25 μM) alone, 3α-OH-DHP 500 nM + 5α-pregnanediol) was 31%. Besides, the “effect on basal 36Cl uptake” value in assay [1] (steroid alone, no GABA) is “no effect”. Besides, in assay [2] (iv, read-out: Anti-Metrazol ED50 (iv)), the ED50 is 40 mg/kg. For the same compound, the inhibition at 1 µM at estrogen receptor stood at 0%; at progesterone receptor (setting [8]), 1%. The figures for the inhibition at 10 µM at progesterone receptor (setting [6]) and at progesterone receptor (setting [7]) were 2% and 3%, respectively. Further, the IC50 stood at 82 nM in assay [3] (setting [9]) and 359 nM in assay [3] (read-out: IC50, inhibition of [35S]-TBPS binding, No GABA, washed synaptoneurosomes, no GABA added). Besides, the “Max. Inhib., maximal % of specifically bound [35S]-TBPS displaced” value in assay [3] turned out to be 52%.
In the case of `C[C@]12CC[C@@H](O)C[C@H]1CC[C@@H]1[C@@H]2CC[C@]2(C)[C@@H](C(=O)CO)CC[C@@H]12` [5β-PREGNAN-3α,21-DIOL-20-ONE], the ED50 in assay [2] (inhibition of metrazol induced convulsions, read-out: Anti-Metrazol ED50) turned out to be 10 mg/kg. The inhibition at 1 µM at estrogen receptor worked out at 4%; at progesterone receptor (read-out: % of inhibition of 3H-progesterone binding, A, competitor 10^-6 M, 0.15 nM 3H-progesterone), 6%; at progesterone receptor (setting [8]) it was 2%. Further, the inhibition at 10 µM on progesterone receptor (setting [6]) amounted to 19%; on progesterone receptor (setting [7]), 10%. The IC50 in assay [3] (setting [9]) is 100 nM. Besides, the “Max. Inhib., maximal % of specifically bound [35S]-TBPS displaced” value in assay [3] was 100%.
As to `CCCC(C)C1(CC)C(=O)NC(=O)NC1=O` (stereo not shown) [pentobarbital], in assay [4] (Na pentobarbital 30 μM), the “Total percentage of specific sites, rapid (R)” value is listed as 48 ± 6% and the “Total percentage of specific sites, slow (S)” value is recorded as 61 ± 6%. Moreover, in assay [4] (setting [10]), the “K-1, rapidly dissociating component (R)” value was 0.158 ± 0.013 min⁻¹; the “K-1, slowly dissociating component (S)” value stood at 0.0186 ± 0.0015 min⁻¹; the “T1/2, rapidly dissociating component (R)” value worked out at 4.4 ± 0.3 min; the “T1/2, slowly dissociating component (S)” value stood at 38 ± 3 min. Moreover, in assay [4] (pentobarbital 30 μM, FIGS. 2A, 2B), the “biphasic dissociation mechanism of [35S]TBPS” value is given as “induces a biphasic dissociation mechanism”. The “effect on number of light/dark transitions (literature)” value in assay [5] was “increase the number of transitions”.
